Details: 283.15 K, Liquid, Vibrating tube method

CCCCC(=O)OCC(COC(=O)CCCC)(COC(=O)CCCC)COC(=O)CCCC [pentaerythritol tetrapentanoate]
Details	mass density [kg/m3]
17085 kPa	1036.8
17119 kPa	1037
17147 kPa	1036.9
17175 kPa	1036.9
17208 kPa	1036.9
17236 kPa	1036.9
17270 kPa	1036.9
17299 kPa	1037
17327 kPa	1037
17355 kPa	1037.1
17390 kPa	1037
17419 kPa	1037.1
17449 kPa	1037.2
17478 kPa	1037
17514 kPa	1037
17542 kPa	1037.2
17572 kPa	1037.1
17607 kPa	1037.1
17637 kPa	1037.4
17666 kPa	1037.2
17702 kPa	1037.3
17732 kPa	1037.2
17762 kPa	1037.3
17798 kPa	1037.3
17829 kPa	1037.1
17860 kPa	1037.4
17890 kPa	1037.4
17927 kPa	1037.2
17958 kPa	1037.4
17995 kPa	1037.4
18026 kPa	1037.4
18058 kPa	1037.4
18097 kPa	1037.4
18130 kPa	1037.4
18164 kPa	1037.4
18197 kPa	1037.5
18237 kPa	1037.5
18262 kPa	1037.5
18283 kPa	1037.6
18309 kPa	1037.6
18330 kPa	1037.6
18356 kPa	1037.5
18377 kPa	1037.6
18399 kPa	1037.6
18421 kPa	1037.6
18446 kPa	1037.8
18468 kPa	1037.6
18490 kPa	1037.7
18517 kPa	1037.7
18539 kPa	1037.6
18561 kPa	1037.7
18588 kPa	1037.6
18610 kPa	1037.8
18631 kPa	1037.7
18657 kPa	1037.6
18680 kPa	1037.8
18702 kPa	1037.9
18728 kPa	1037.6
18750 kPa	1037.7
18778 kPa	1037.8
18800 kPa	1037.8
18823 kPa	1037.9
18845 kPa	1037.8
18874 kPa	1037.8
18896 kPa	1037.8
18919 kPa	1037.9
18947 kPa	1037.9
18970 kPa	1037.8
18993 kPa	1037.9
19021 kPa	1038
19044 kPa	1037.9
19067 kPa	1037.8
19094 kPa	1037.9
19118 kPa	1038
19142 kPa	1038.1
19166 kPa	1038
19191 kPa	1038
19219 kPa	1038
19243 kPa	1038
19266 kPa	1038
19295 kPa	1038.2
19319 kPa	1038
19343 kPa	1038
19372 kPa	1038.2
19397 kPa	1038.1
19420 kPa	1038.2
19450 kPa	1038.1
19475 kPa	1038.1
19501 kPa	1038.1
19525 kPa	1038.2
19550 kPa	1038.2
19579 kPa	1038.2
19603 kPa	1038.3
19633 kPa	1038.3
19658 kPa	1038.2
19682 kPa	1038.1
19707 kPa	1038.3
19738 kPa	1038.4
19763 kPa	1038.4
19788 kPa	1038.3
19818 kPa	1038.4
19844 kPa	1038.3
19874 kPa	1038.4
19900 kPa	1038.3
19925 kPa	1038.5
19951 kPa	1038.5
19982 kPa	1038.5
20007 kPa	1038.5
20033 kPa	1038.5
20064 kPa	1038.4
20090 kPa	1038.5
20121 kPa	1038.5
20147 kPa	1038.5
20174 kPa	1038.5
20200 kPa	1038.6
20232 kPa	1038.5
20259 kPa	1038.7
20286 kPa	1038.5
20318 kPa	1038.6
20344 kPa	1038.6
20376 kPa	1038.6
20403 kPa	1038.6
20430 kPa	1038.8
20462 kPa	1038.6
20490 kPa	1038.7
20517 kPa	1038.7
20550 kPa	1038.8
20578 kPa	1038.8
20607 kPa	1038.8
20634 kPa	1038.9
20667 kPa	1038.8
20695 kPa	1038.8
20723 kPa	1038.8
20756 kPa	1038.9
20784 kPa	1038.9
20812 kPa	1038.9
20846 kPa	1038.9
20875 kPa	1039
20904 kPa	1038.9
20938 kPa	1038.9
20966 kPa	1038.9
20995 kPa	1039
21029 kPa	1039
21058 kPa	1039.1
21086 kPa	1039.2
21116 kPa	1039
21151 kPa	1039
21180 kPa	1039.1
21215 kPa	1039.1
21244 kPa	1039.2
21274 kPa	1039.1
21303 kPa	1039.1
21340 kPa	1039.1
21369 kPa	1039.2
21399 kPa	1039.1
21435 kPa	1039.2
21464 kPa	1039.2
21495 kPa	1039.3
21531 kPa	1039.4
21561 kPa	1039.3
